Measurements taken from patent publication US11339170B1, “Spiropyrrolidine derived antiviral agents” (priority 2021, dated 2022).
Read-outs that look alike come from different tables or passages of the source.

Assays:
SARS-CoV-2 3CL-protease = SARS-CoV-2 3CL-protease (Severe acute respiratory syndrome coronavirus 2 (2019-nCoV) (SARS-CoV-2), UniProt P0DTD1); test: SARS-CoV-2 3C-like (3CL) protease fluorescence assay (FRET); format: biochemical
[1] = test system: 229E human corona virus (hCoV); test: 229E live virus assay (CPE, ATPlite readout) in MRC-5 cells; format: cell-based, hCoV-229E; details: Human coronavirus 229E, MRC5, 144 h, read-out: 229E EC50
[2] = recombinant SARS-CoV-2 3CL-protease 10 nM, 30 min preincubation, duplicate, read-out: FRET IC50

Compound: CC(C)C[C@@H](C(=O)N1C[C@]2(C[C@H]1C#N)C(=O)Nc1ccccc12)N(C)C(=O)C(=O)Nc1ccc(F)cc1F [Compound 1]
- IC50 (SARS-CoV-2 3CL-protease; read-out: FRET IC50, recombinant SARS-CoV-2 3CL-protease 10 nM, 30 min preincubation, duplicate): < 0.1 µM

Compound: CC(C)C[C@@H](C(=O)N1C[C@]2(C[C@H]1C#N)C(=O)Nc1ccccc12)N(C)C(=O)C(=O)Nc1ccc(F)cc1F [Compound 2]
- IC50 (SARS-CoV-2 3CL-protease; [2]): < 0.1 µM

Compound: CC(C)C[C@@H](C(=O)N1C[C@]2(C[C@H]1C#N)C(=O)Nc1ccccc12)N(C)C(=O)C(=O)Nc1ccccc1 [Compound 3]
- EC50 [1]: < 0.1 µM
- IC50 (SARS-CoV-2 3CL-protease): < 0.1 µM

Compound: CC(C)C[C@@H](C(=O)N1C[C@]2(C[C@H]1C#N)C(=O)Nc1ccccc12)N(C)C(=O)C(=O)Nc1ccc(F)cc1 [Compound 4]
- EC50 [1]: < 0.1 µM
- IC50 (SARS-CoV-2 3CL-protease): < 0.1 µM

Compound: CC(C)C[C@@H](C(=O)N1C[C@]2(C[C@H]1C#N)C(=O)Nc1ccccc12)N(C)C(=O)C(=O)Nc1ccc(F)c(F)c1 [Compound 5]
- EC50 [1]: < 0.1 µM
- IC50 (SARS-CoV-2 3CL-protease): 0.1 to 1 µM

Compound: CC(C)C[C@@H](C(=O)N1C[C@]2(C[C@H]1C#N)C(=O)Nc1ccccc12)N(C)C(=O)C(=O)Nc1cc(F)c(F)c(F)c1 [Compound 6]
- EC50 [1]: < 0.1 µM
- IC50 (SARS-CoV-2 3CL-protease): 0.1 to 1 µM

Compound: CC(C)C[C@@H](C(=O)N1C[C@]2(C[C@H]1C#N)C(=O)Nc1ccccc12)N(C)C(=O)C(=O)Nc1ccc2ccccc2c1 [Compound 7]
- EC50 [1]: < 0.1 µM
- IC50 (SARS-CoV-2 3CL-protease): < 0.1 µM

Compound: CC(C)C[C@@H](C(=O)N1C[C@]2(C[C@H]1C#N)C(=O)Nc1ccccc12)N(C)C(=O)C(=O)Nc1cccc2ccccc12 [Compound 8]
- EC50 [1]: < 0.1 µM
- IC50 (SARS-CoV-2 3CL-protease): < 0.1 µM

Compound: CC(C)C[C@@H](C(=O)N1C[C@]2(C[C@H]1C#N)C(=O)Nc1ccccc12)N(C)C(=O)C(=O)N(C)c1ccccc1 [Compound 9]
- EC50 [1]: < 0.1 µM
- IC50 (SARS-CoV-2 3CL-protease): < 0.1 µM

Compound: CC(C)C[C@@H](C(=O)N1C[C@]2(C[C@H]1C#N)C(=O)Nc1ccccc12)N(C)C(=O)C(=O)N(C)c1ccc(F)cc1 [Compound 10]
- EC50 [1]: < 0.1 µM
- IC50 (SARS-CoV-2 3CL-protease): < 0.1 µM

Compound: CC(C)C[C@@H](C(=O)N1C[C@]2(C[C@H]1C#N)C(=O)Nc1ccccc12)N(C)C(=O)C(=O)Nc1ccc2cccnc2c1 [Compound 11]
- EC50 [1]: < 0.1 µM
- IC50 (SARS-CoV-2 3CL-protease): < 0.1 µM

Compound: CC(C)C[C@@H](C(=O)N1C[C@]2(C[C@H]1C#N)C(=O)Nc1ccccc12)N(C)C(=O)C(=O)Nc1ccc2cnccc2c1 [Compound 12]
- EC50 [1]: < 0.1 µM
- IC50 (SARS-CoV-2 3CL-protease): < 0.1 µM

Compound: CC(C)C[C@@H](C(=O)N1C[C@]2(C[C@H]1C#N)C(=O)Nc1ccccc12)N(C)C(=O)C(=O)Nc1ccc2ccccc2n1 [Compound 13]
- EC50 [1]: < 0.1 µM
- IC50 (SARS-CoV-2 3CL-protease): < 0.1 µM

Compound: CC(C)C[C@@H](C(=O)N1C[C@]2(C[C@H]1C#N)C(=O)Nc1ccccc12)N(C)C(=O)C(=O)Nc1ccc2ncccc2c1 [Compound 14]
- EC50 [1]: < 0.1 µM
- IC50 (SARS-CoV-2 3CL-protease): < 0.1 µM

Compound: CC(C)C[C@@H](C(=O)N1C[C@]2(C[C@H]1C#N)C(=O)Nc1ccccc12)N(C)C(=O)C(=O)Nc1cnc2ccccc2c1 [Compound 15]
- EC50 [1]: < 0.1 µM
- IC50 (SARS-CoV-2 3CL-protease): < 0.1 µM

Compound: CC(C)C[C@@H](C(=O)N1C[C@]2(C[C@H]1C#N)C(=O)Nc1ccccc12)N(C)C(=O)C(=O)Nc1nn(C)c2ccccc12 [Compound 16]
- EC50 [1]: < 0.1 µM
- IC50 (SARS-CoV-2 3CL-protease): < 0.1 µM

Compound: CC(C)C[C@@H](C(=O)N1C[C@]2(C[C@H]1C#N)C(=O)Nc1ccccc12)N(C)C(=O)C(=O)Nc1nc2ccccc2s1 [Compound 17]
- EC50 [1]: < 0.1 µM
- IC50 (SARS-CoV-2 3CL-protease): < 0.1 µM

Compound: CC(C)C[C@@H](C(=O)N1C[C@]2(C[C@H]1C#N)C(=O)Nc1ccccc12)N(C)C(=O)C(=O)Nc1nc2ccccc2n1C [Compound 18]
- EC50 [1]: < 0.1 µM
- IC50 (SARS-CoV-2 3CL-protease): < 0.1 µM

Compound: CC(C)C[C@@H](C(=O)N1C[C@]2(C[C@H]1C#N)C(=O)Nc1ccccc12)N(C)C(=O)C(=O)Nc1n[nH]c2ccccc12 [Compound 19]
- EC50 ([1]; MRC-5 cells, MOI 0.05, 6 days at 34° C., ATPlite, duplicate): < 0.1 µM
- IC50 (SARS-CoV-2 3CL-protease; [2]): < 0.1 µM

Compound: CN(C(=O)C(=O)Nc1ccc(F)cc1F)[C@@H](CC(C)(C)C)C(=O)N1C[C@]2(C[C@H]1C#N)C(=O)Nc1ccccc12 [Compound 20]
- EC50 [1]: < 0.1 µM
- IC50 (SARS-CoV-2 3CL-protease): < 0.1 µM

Compound: CN(C(=O)C(=O)Nc1ccc(F)cc1)[C@@H](CC(C)(C)C)C(=O)N1C[C@]2(C[C@H]1C#N)C(=O)Nc1ccccc12 [Compound 21]
- EC50 [1]: < 0.1 µM
- IC50 (SARS-CoV-2 3CL-protease): < 0.1 µM

Compound: [2H]C([2H])([2H])N(C(=O)C(=O)Nc1ccc(F)cc1)[C@@H](CC(C)(C)C)C(=O)N1C[C@]2(C[C@H]1C#N)C(=O)Nc1ccccc12 [Compound 22]
- EC50 [1]: < 0.1 µM
- IC50 (SARS-CoV-2 3CL-protease): < 0.1 µM

Compound: [2H]C([2H])([2H])N(C(=O)C(=O)Nc1ccc(F)cc1F)[C@@H](CC(C)(C)C)C(=O)N1C[C@]2(C[C@H]1C#N)C(=O)Nc1ccccc12 [Compound 23]
- EC50 [1]: < 0.1 µM
- IC50 (SARS-CoV-2 3CL-protease): < 0.1 µM

Compound: [2H]C([2H])([2H])N(C(=O)C(=O)Nc1ccc(F)c(F)c1)[C@@H](CC(C)(C)C)C(=O)N1C[C@]2(C[C@H]1C#N)C(=O)Nc1ccccc12 [Compound 24]
- EC50 [1]: < 0.1 µM
- IC50 (SARS-CoV-2 3CL-protease): < 0.1 µM

Compound: [2H]C([2H])([2H])N(C(=O)C(=O)NC1CCC1)[C@@H](CC(C)(C)C)C(=O)N1C[C@]2(C[C@H]1C#N)C(=O)Nc1ccccc12 [Compound 25]
- EC50 [1]: < 0.1 µM
- IC50 (SARS-CoV-2 3CL-protease): < 0.1 µM

Compound: [2H]C([2H])([2H])N(C(=O)C(=O)NC1CCCCC1)[C@@H](CC(C)(C)C)C(=O)N1C[C@]2(C[C@H]1C#N)C(=O)Nc1ccccc12 [Compound 26]
- EC50 [1]: < 0.1 µM
- IC50 (SARS-CoV-2 3CL-protease): < 0.1 µM

Compound: [2H]C([2H])([2H])N(C(=O)C(=O)Nc1ccccn1)[C@@H](CC(C)(C)C)C(=O)N1C[C@]2(C[C@H]1C#N)C(=O)Nc1ccccc12 [Compound 27]
- EC50 [1]: < 0.1 µM
- IC50 (SARS-CoV-2 3CL-protease): 0.1 to 1 µM

Compound: [2H]C([2H])([2H])N(C(=O)C(=O)N1CCCCC1)[C@@H](CC(C)(C)C)C(=O)N1C[C@]2(C[C@H]1C#N)C(=O)Nc1ccccc12 [Compound 29]
- EC50 [1]: < 0.1 µM
- IC50 (SARS-CoV-2 3CL-protease): 0.1 to 1 µM

Compound: [2H]C([2H])([2H])N(C(=O)C(=O)Nc1ccc(F)cc1)[C@@H](Cc1ccccc1)C(=O)N1C[C@]2(C[C@H]1C#N)C(=O)Nc1ccccc12 [Compound 30]
- EC50 [1]: < 0.1 µM
- IC50 (SARS-CoV-2 3CL-protease): < 0.1 µM

Compound: [2H]C([2H])([2H])N(C(=O)C(=O)NC1CCCC1)[C@@H](CC(C)(C)C)C(=O)N1C[C@]2(C[C@H]1C#N)C(=O)Nc1ccccc12 [Compound 31]
- EC50 [1]: < 0.1 µM
- IC50 (SARS-CoV-2 3CL-protease): < 0.1 µM

Compound: [2H]C([2H])([2H])N(C(=O)C(=O)Nc1ccccc1)[C@@H](Cc1ccccc1)C(=O)N1C[C@]2(C[C@H]1C#N)C(=O)Nc1ccccc12 [Compound 32]
- EC50 [1]: < 0.1 µM
- IC50 (SARS-CoV-2 3CL-protease): < 0.1 µM

Compound: [2H]C([2H])([2H])N(C(=O)C(=O)Nc1ccccn1)[C@@H](Cc1ccccc1)C(=O)N1C[C@]2(C[C@H]1C#N)C(=O)Nc1ccccc12 [Compound 33]
- EC50 [1]: < 0.1 µM
- IC50 (SARS-CoV-2 3CL-protease): < 0.1 µM

Compound: [2H]C([2H])([2H])N(C(=O)C(=O)NC1CC1)[C@@H](Cc1ccccc1)C(=O)N1C[C@]2(C[C@H]1C#N)C(=O)Nc1ccccc12 [Compound 34]
- EC50 [1]: < 0.1 µM
- IC50 (SARS-CoV-2 3CL-protease): < 0.1 µM

Compound: [2H]C([2H])([2H])N(C(=O)C(=O)Nc1c(C)cccc1C)[C@@H](CC(C)(C)C)C(=O)N1C[C@]2(C[C@H]1C#N)C(=O)Nc1ccccc12 [Compound 35]
- EC50 [1]: < 0.1 µM
- IC50 (SARS-CoV-2 3CL-protease): < 0.1 µM

Compound: [2H]C([2H])([2H])N(C(=O)C(=O)N(C)c1ccccc1)[C@@H](CC(C)(C)C)C(=O)N1C[C@]2(C[C@H]1C#N)C(=O)Nc1ccccc12 [Compound 36]
- EC50 [1]: 0.1 to 1 µM
- IC50 (SARS-CoV-2 3CL-protease): > 1 µM

Compound: [2H]C([2H])([2H])N(C(=O)C(=O)Nc1ccc2ncccc2c1)[C@@H](CC(C)(C)C)C(=O)N1C[C@]2(C[C@H]1C#N)C(=O)Nc1ccccc12 [Compound 37]
- EC50 [1]: < 0.1 µM
- IC50 (SARS-CoV-2 3CL-protease): < 0.1 µM

Compound: [2H]C([2H])([2H])N(C(=O)C(=O)Nc1ccc(F)c(F)c1)[C@@H](CC1CC1)C(=O)N1C[C@]2(C[C@H]1C#N)C(=O)Nc1ccccc12 [Compound 38]
- EC50 [1]: < 0.1 µM
- IC50 (SARS-CoV-2 3CL-protease): < 0.1 µM

Compound: [2H]C([2H])([2H])N(C(=O)C(=O)Nc1ccc(F)cc1)[C@@H](CC1CC1)C(=O)N1C[C@]2(C[C@H]1C#N)C(=O)Nc1ccccc12 [Compound 39]
- EC50 [1]: < 0.1 µM
- IC50 (SARS-CoV-2 3CL-protease): < 0.1 µM

Compound: CC(C)C[C@@H](C(=O)N1C[C@]2(C[C@H]1C#N)C(=O)Nc1ccccc12)N(C)C(=O)C(=O)NC1CC1 [Compound 40]
- EC50 [1]: < 0.1 µM
- IC50 (SARS-CoV-2 3CL-protease): < 0.1 µM

Compound: CC(C)C[C@@H](C(=O)N1C[C@]2(C[C@H]1C#N)C(=O)Nc1ccccc12)N(C)C(=O)C(=O)c1ccc(F)cc1 [Compound 41]
- EC50 [1]: < 0.1 µM
- IC50 (SARS-CoV-2 3CL-protease): < 0.1 µM

Compound: CC(C)C[C@@H](C(=O)N1C[C@]2(C[C@H]1C#N)C(=O)Nc1ccccc12)N(C)C(=O)C(=O)N(C)C1CC1 [Compound 42]
- EC50 [1]: < 0.1 µM
- IC50 (SARS-CoV-2 3CL-protease): < 0.1 µM

Compound: CC(C)C[C@@H](C(=O)N1C[C@]2(C[C@H]1C#N)C(=O)Nc1ccccc12)N(C)C(=O)C(=O)C1CC1 [Compound 43]
- EC50 [1]: < 0.1 µM
- IC50 (SARS-CoV-2 3CL-protease): < 0.1 µM

Compound: CC(C)(C)C[C@H](NC(=O)C(=O)NC(C)(C)C)C(=O)N1C[C@]2(C[C@H]1C#N)C(=O)Nc1ccccc12 [Compound 69]
- IC50 (SARS-CoV-2 3CL-protease): < 0.1 µM
